In patent publication US20150344427A1 (EPIZYME, INC., priority 2012, published 2015) one finds IC50 data, which are given here for 11 compounds.

Experiment [1] relates to H3K27 trimethylation in WSU-DLCL2 cells. Kind of experiment: WSU-DLCL2 Methylation Assay (H3K27me3 ELISA). The settings on record: Homo sapiens, WSUDLCL2, 96 hours incubation, H3K27me3 normalised to total Histone H3. The experiment is classed as cell-based. The source says: WSU-DLCL2 suspension cells were purchased from DSMZ (German Collection of Microorganisms and Cell Cultures, Braunschweig, Germany). RPMI/Glutamax Medium, Penicillin-Streptomycin, Heat Inactivated Fetal Bovine Serum, and D-PBS were purchased from Life Technologies, Grand Island, N.Y., USA. Extraction Buffer and Neutralization Buffer (5×) were purchased from Active Motif, Carlsbad, Calif., USA. Rabbit anti-Histone H3 antibody was purchased from Abcam, Cambridge, Mass., USA. Rabbit anti-H3K27me3 and HRP-conjugated anti-rabbit-IgG were purchased from Cell Signaling Technology, Danvers, Mass., USA. TMB “Super Sensitive” substrate was sourced from BioFX Laboratories, Owings Mills, Md., USA. IgG-free Bovine Serum Albumin was purchased from Jackson ImmunoResearch, West Grove, Pa., USA. PBS with Tween (10×PBST) was purchased from KPL, Gaithersburg, Md., USA. Sulfuric Acid was purchased from Ricca Chemical, Arlington, Tex., USA. Immulon ELISA plates were purchased from Thermo, Rochester, N.Y., USA. V-bottom cell culture plates were purchased from Corning Inc., Corning, N.Y., USA. V-bottom polypropylene plates were purchased from Greiner Bio-One, Monroe, N.C., USA.
WSU-DLCL2 suspension cells were maintained in growth medium (RPMI 1640 supplemented with 10% v/v heat inactivated fetal bovine serum and 100 units/mL penicillin-streptomycin) and cultured at 37° C. under 5% CO2 Under assay conditions, cells were incubated in Assay Medium (RPMI 1640 supplemented with 20% v/v heat inactivated fetal bovine serum and 100 units/mL penicillin-streptomycin) at 37° C. under 5% CO2 on a plate shaker.
WSU-DLCL2 cells were seeded in assay medium at a concentration of 50,000 cells per mL to a 96-well V-bottom cell culture plate with 200 μL per well. Compound (1 μL) from 96 well source plates was added directly to V-bottom cell plate. Plates were incubated on a titer-plate shaker at 37° C., 5% CO2 for 96 hours. After four days of incubation, plates were spun at 241×g for five minutes and medium was aspirated gently from each well of cell plate without disturbing cell pellet. Pellet was resuspended in 200 μL DPBS and plates were spun again at 241×g for five minutes. The supernatant was aspirated and cold (4° C.) Extraction buffer (100 μL) was added per well. Plates were incubated at 4° C. on orbital shaker for two hours. Plates were spun at 3427×g×10 minutes. Supernatant (80 μL per well) was transferred to its respective well in 96 well V-bottom polypropylene plate. Neutralization Buffer 5× (20 μL per well) was added to V-bottom polypropylene plate containing supernatant. V-bottom polypropylene plates containing crude histone preparation (CHP) were incubated on orbital shaker x five minutes. Crude Histone Preparations were added (2 μL per well) to each respective well into duplicate 96 well ELISA plates containing 100 μL Coating Buffer (1×PBS+BSA 0.05% w/v). Plates were sealed and incubated overnight at 4° C. The following day, plates were washed three times with 300 μL per well 1×PBST. Wells were blocked for two hours with 300 μL per well ELISA Diluent ((PBS (1×) BSA (2% w/v) and Tween20 (0.05% v/v)). Plates were washed three times with 1×PBST. For the Histone H3 detection plate, 100 μL per well were added of anti-Histone-H3 antibody (Abcam, ab1791) diluted 1:10,000 in ELISA Diluent. For H3K27 trimethylation detection plate, 100 μL per well were added of anti-H3K27me3 diluted 1:2000 in ELISA diluent. Plates were incubated for 90 minutes at room temperature. Plates were washed three times with 300 μL 1×PBST per well. For Histone H3 detection, 100 μL of HRP-conjugated anti-rabbit IgG antibody diluted to 1:6000 in ELISA diluent was added per well. For H3K27me3 detection, 100 μL of HRP conjugated anti-rabbit IgG antibody diluted to 1:4000 in ELISA diluent was added per well. Plates were incubated at room temperature for 90 minutes. Plates were washed four times with 1×PBST 300 μL per well. TMB substrate 100 μL was added per well. […]
On the technique in general: In an ELISA, binding on a coated surface is turned into a signal by an enzyme label.

The subject of experiment [2] is WSU-DLCL2 cells. Briefly: Cell Proliferation Analysis, WSU-DLCL2. The class given is cell-based. The settings on record: Homo sapiens, WSUDLCL2, 144 h, 6 days, Cell Titer Glo. The source says:
WSU-DLCL2 suspension cells were purchased from DSMZ (German Collection of Microorganisms and Cell Cultures, Braunschweig, Germany). RPMI/Glutamax Medium, Penicillin-Streptomycin, Heat Inactivated Fetal Bovine Serum were purchased from Life Technologies, Grand Island, N.Y., USA. V-bottom polypropylene 384-well plates were purchased from Greiner Bio-One, Monroe, N.C., USA. Cell culture 384-well white opaque plates were purchased from Perkin Elmer, Waltham, Mass., USA. Cell-Titer Glo® was purchased from Promega Corporation, Madison, Wis., USA. SpectraMax M5 plate reader was purchased from Molecular Devices LLC, Sunnyvale, Calif., USA.
WSU-DLCL2 suspension cells were maintained in growth medium (RPMI 1640 supplemented with 10% v/v heat inactivated fetal bovine serum and cultured at 37° C. under 5% CO2. Under assay conditions, cells were incubated in Assay Medium (RPMI 1640 supplemented with 20% v/v heat inactivated fetal bovine serum and 100 units/mL penicillin-streptomycin) at 37° C. under 5% CO2.
For the assessment of the effect of compounds on the proliferation of the WSU-DLCL2 cell line, exponentially growing cells were plated in 384-well white opaque plates at a density of 1250 cell/ml in a final volume of 50 μl of assay medium. A compound source plate was prepared by performing triplicate nine-point 3-fold serial dilutions in DMSO, beginning at 10 mM (final top concentration of compound in the assay was 20 μM and the DMSO was 0.2%). A 100 nL aliquot from the compound stock plate was added to its respective well in the cell plate. […] After addition of compounds, assay plates were incubated for 6 days at 37° C., 5% CO2, relative humidity >90% for 6 days. Cell viability was measured by quantization of ATP present in the cell cultures, adding 35 μl of Cell Titer Glo® reagent to the cell plates. Luminescence was read in the SpectraMax M5. The concentration inhibiting cell viability by 50% was determined using a 4-parametric fit of the normalized dose response curves.
(In general: ATP-based viability assays read luminescence as a measure of living cells.)

The target of experiment [3] is T1, wild-type EZH2 (PRC2 enzyme) (Homo sapiens, UniProt Q15910).
T1 construct: made in house; host or cells: Spodoptera frugiperda (sf9) cells, baculovirus
T1 sequence (Q15910 whole entry): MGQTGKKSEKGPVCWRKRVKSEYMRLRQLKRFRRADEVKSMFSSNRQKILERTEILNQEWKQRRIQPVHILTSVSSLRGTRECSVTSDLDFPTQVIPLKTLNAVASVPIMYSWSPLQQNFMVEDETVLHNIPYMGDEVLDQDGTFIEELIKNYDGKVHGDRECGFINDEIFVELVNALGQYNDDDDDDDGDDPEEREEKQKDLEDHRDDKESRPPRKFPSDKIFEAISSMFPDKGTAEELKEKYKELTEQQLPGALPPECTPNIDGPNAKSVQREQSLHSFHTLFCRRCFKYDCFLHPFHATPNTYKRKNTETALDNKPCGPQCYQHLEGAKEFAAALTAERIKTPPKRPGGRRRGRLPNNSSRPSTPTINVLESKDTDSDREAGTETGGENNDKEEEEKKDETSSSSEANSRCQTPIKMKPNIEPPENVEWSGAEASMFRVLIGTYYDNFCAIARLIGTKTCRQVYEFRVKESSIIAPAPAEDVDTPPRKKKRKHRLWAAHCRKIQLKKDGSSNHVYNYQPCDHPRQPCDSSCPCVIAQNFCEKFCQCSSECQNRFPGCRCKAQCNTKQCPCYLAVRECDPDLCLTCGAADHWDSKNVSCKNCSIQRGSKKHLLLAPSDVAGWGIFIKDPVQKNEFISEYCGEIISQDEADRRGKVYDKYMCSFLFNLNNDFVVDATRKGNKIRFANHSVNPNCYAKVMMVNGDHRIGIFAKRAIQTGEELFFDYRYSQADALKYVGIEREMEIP
T1 sequence (O75530 whole entry partner): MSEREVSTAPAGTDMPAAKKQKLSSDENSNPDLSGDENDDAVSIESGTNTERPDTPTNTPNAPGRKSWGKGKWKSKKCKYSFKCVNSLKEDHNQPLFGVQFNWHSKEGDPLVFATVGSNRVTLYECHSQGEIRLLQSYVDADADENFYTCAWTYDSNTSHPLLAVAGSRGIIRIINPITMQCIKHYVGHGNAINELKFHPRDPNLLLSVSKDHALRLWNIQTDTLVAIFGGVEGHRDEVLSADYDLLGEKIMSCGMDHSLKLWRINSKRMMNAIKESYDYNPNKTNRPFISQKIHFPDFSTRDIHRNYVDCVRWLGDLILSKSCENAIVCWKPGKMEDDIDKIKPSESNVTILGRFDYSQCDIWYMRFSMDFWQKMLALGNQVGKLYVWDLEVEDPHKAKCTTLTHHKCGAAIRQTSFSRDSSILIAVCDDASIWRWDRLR
T1 sequence (Q15022 whole entry partner): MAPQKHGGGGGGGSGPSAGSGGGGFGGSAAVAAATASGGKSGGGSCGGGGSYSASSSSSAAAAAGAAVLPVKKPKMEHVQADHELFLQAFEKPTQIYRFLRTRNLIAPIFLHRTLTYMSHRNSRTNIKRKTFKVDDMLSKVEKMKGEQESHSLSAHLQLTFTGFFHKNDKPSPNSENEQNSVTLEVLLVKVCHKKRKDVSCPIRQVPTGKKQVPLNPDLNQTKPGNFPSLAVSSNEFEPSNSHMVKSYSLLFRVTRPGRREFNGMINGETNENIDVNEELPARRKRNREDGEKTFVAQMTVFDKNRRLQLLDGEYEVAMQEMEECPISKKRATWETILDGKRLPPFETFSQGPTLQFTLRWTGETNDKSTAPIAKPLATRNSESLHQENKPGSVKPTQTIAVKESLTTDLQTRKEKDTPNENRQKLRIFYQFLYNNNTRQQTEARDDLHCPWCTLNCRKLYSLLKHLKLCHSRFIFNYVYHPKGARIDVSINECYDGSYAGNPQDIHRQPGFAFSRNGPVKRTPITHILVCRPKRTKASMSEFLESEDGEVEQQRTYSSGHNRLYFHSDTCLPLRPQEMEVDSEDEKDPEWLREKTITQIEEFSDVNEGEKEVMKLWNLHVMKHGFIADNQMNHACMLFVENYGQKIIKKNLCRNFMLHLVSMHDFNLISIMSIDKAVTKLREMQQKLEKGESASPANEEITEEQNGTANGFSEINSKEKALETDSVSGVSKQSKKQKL
T1 sequence (Q09028 whole entry partner): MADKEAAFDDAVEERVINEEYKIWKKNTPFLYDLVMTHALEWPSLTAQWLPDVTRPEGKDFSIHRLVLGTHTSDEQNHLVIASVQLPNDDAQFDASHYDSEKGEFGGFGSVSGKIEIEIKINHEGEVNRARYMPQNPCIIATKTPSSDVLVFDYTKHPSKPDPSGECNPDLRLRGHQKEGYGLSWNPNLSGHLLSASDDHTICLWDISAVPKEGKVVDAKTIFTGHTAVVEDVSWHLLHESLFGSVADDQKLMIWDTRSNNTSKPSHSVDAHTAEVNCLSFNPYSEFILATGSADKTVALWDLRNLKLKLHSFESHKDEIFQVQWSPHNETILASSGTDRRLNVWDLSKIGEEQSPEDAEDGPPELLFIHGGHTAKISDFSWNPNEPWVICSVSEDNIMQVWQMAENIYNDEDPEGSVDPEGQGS
Kind of experiment: PRC2 enzyme assay on peptide substrate, wild-type EZH2. The class given is biochemical. As to conditions: wild-type PRC2 enzyme 4 nM, H3K27me0 peptide, 3H-SAM Flashplate; read-out: WT EZH2 IC50. The text has this: (§1) General Materials. S-adenosylmethionine (SAM), S-adenosylhomocyteine (SAH), bicine, KCl, Tween20, dimethylsulfoxide (DMSO) and bovine skin gelatin (BSG) were purchased from Sigma-Aldrich at the highest level of purity possible. Dithiothreitol (DTT) was purchased from EMD. ^3H-SAM was purchased from American Radiolabeled Chemicals with a specific activity of 80 Ci/mmol. 384-well streptavidin Flashplates were purchased from PerkinElmer.
(§2) Peptides representative of human histone H3 residues 21-44 containing either an unmodified lysine 27 (H3K27me0) or dimethylated lysine 27 (H3K27me2) were synthesized with a C-terminal G(K-biotin) linker-affinity tag motif and a C-terminal amide cap by 21st Century Biochemicals. […] The sequences are listed below.
(§3) Human PRC2 enzymes were purified as 4-component enzyme complexes co-expressed in Spodoptera frugiperda (sf9) cells using a baculovirus expression system. […] The EED subunit contained an N-terminal FLAG tag that was used to purify the entire 4-component complex from sf9 cell lysates.
(§4) The assays were all performed in a buffer consisting of 20 mM bicine (pH=7.6), 0.5 mM DTT, 0.005% BSG and 0.002% Tween20, prepared on the day of use. Compounds in 100% DMSO (1 μL) were spotted into polypropylene 384-well V-bottom plates (Greiner) using a Platemate 2×3 outfitted with a 384-channel pipet head (Thermo). DMSO (1 μL) was added to columns 11, 12, 23, 24, rows A-H for the maximum signal control, and SAH, a known product and inhibitor of PRC2 (1 μL) was added to columns 11,12, 23, 24, rows I-P for the minimum signal control. A cocktail (40 μL) containing the wild-type PRC2 enzyme and H3K27me0 peptide or any of the Y641 mutant enzymes and H3K27me2 peptide was added by Multidrop Combi (Thermo). The compounds were allowed to incubate with PRC2 for 30 min at 25° C., then a cocktail (10 μL) containing a mixture of non-radioactive and ^3H-SAM was added to initiate the reaction (final volume=51 μL). In all cases, the final concentrations were as follows: wild-type or mutant PRC2 enzyme was 4 nM, SAH in the minimum signal control wells was 1 mM and the DMSO concentration was 1%. The assays were stopped by the addition of non-radioactive SAM (10 μL) to a final concentration of 600 μM, which dilutes the ^3H-SAM to a level where its incorporation into the peptide substrate is no longer detectable. 50 μL of the reaction in the 384-well polypropylene plate was then transferred to a 384-well Flashplate and the biotinylated peptides were allowed to bind to the streptavidin surface for at least 1 h before being washed three times with 0.1% Tween20 in a Biotek ELx405 plate washer. The plates were then read in a PerkinElmer TopCount platereader to measure the quantity of ^3H-labeled peptide bound to the Flashplate surface, measured as disintegrations per minute (dpm) or alternatively, referred to as counts per minute (cpm).
(§5) Where dpm=disintegrations per minute, cmpd=signal in assay well, and min and max are the respective minimum and maximum signal controls.
(§6) Where top and bottom are the normally allowed to float, but may be fixed at 100 or 0 respectively in a 3-parameter fit. The Hill Coefficient normally allowed to float but may also be fixed at 1 in a 3-parameter fit. Y is the % inhibition and X is the compound concentration.

In experiment [4] the target is T2, EZH2 Y641F mutant (PRC2 enzyme) (Homo sapiens, UniProt Q15910, Y641F).
T2 construct: made in house; host or cells: Spodoptera frugiperda (sf9) cells, baculovirus
T2 sequence (Q15910 whole entry Y641F): as the sequence (Q15910 whole entry) above, with Y641F counted along it
T2 sequence (O75530 whole entry partner): as the sequence (O75530 whole entry partner) above
T2 sequence (Q15022 whole entry partner): as the sequence (Q15022 whole entry partner) above
T2 sequence (Q09028 whole entry partner): as the sequence (Q09028 whole entry partner) above
Kind of experiment: PRC2 enzyme assay on peptide substrate, EZH2 Y641F mutant. The settings on record: Y641F mutant PRC2 enzyme 4 nM, H3K27me2 peptide, 3H-SAM Flashplate. The class given is biochemical.
Source text: as §1, §2, §3, §4, §5, §6

In general, IC50 refers to the point on the concentration scale where inhibition reaches its midpoint. Consider `CCN(c1cc(-c2ccc(CN3CCOCC3)cc2)cc(C(=O)NCc2c(C)[nH]c(C)cc2=O)c1C)C1CCOCC1` [Compound 2, N-((2,6-dimethyl-4-oxo-1,4-dihydropyridin-3-yl)methyl)-5-(ethyl(tetrahydro-2H-pyran-4-yl)amino)-4-methyl-4′-(morpholinomethyl)-[1,1′-biphenyl]-3-carboxamide], for which the results for the IC50 in experiment [1] and in experiment [2] were 8040 nM and 19500 nM, respectively.

Consider `CCN(c1cc(-c2ccc(CN3CCOCC3)cc2)cc(C(=O)NCc2c(Cl)[nH]c(C)cc2=O)c1C)C1CCOCC1` [Compound 4, N-((2-chloro-6-methyl-4-oxo-1,4-dihydropyridin-3-yl)methyl)-5-(ethyl(tetrahydro-2H-pyran-4-yl)amino)-4-methyl-4′-(morpholinomethyl)-[1,1′-biphenyl]-3-carboxamide], for which the IC50 in experiment [1] came to 9070 nM; in experiment [2], 6720 nM.

As to `CCN(c1cc(C#CCN2CCOCC2)cc(C(=O)NCc2c(C)[nH]c(C)cc2=O)c1C)[C@H]1CC[C@H](N(C)C)CC1` [Compound 95], the IC50 in experiment [3] came out at 17 nM; in experiment [1], 11400 nM; in experiment [4], 12 nM.

For `CCN(c1cc(C#CCN2CCOCC2)cc(C(=O)NCc2c(Cl)[nH]c(C)cc2=O)c1C)[C@H]1CC[C@H](N(C)C)CC1` [Compound 96], the IC50 stood at 130 nM in experiment [3], 4300 nM in experiment [1] and 118 nM in experiment [4].

Take `CCN(c1cc(C#CC2(C)COC2)cc(C(=O)NCc2c(C)[nH]c(C)cc2=O)c1C)[C@H]1CC[C@H](N(C)C)CC1` [Compound 97]: the IC50 in experiment [3] worked out at 5 nM; in experiment [1], 9200 nM; in experiment [4], 8 nM.

As for `CCN(c1cc(-c2ccc(CN3CCOCC3)cc2)cc(C(=O)NCc2c(C)[nH]c(C)cc2=O)c1C)[C@H]1CC[C@H](N(C)C)CC1` [Compound 98], the IC50 in experiment [1] was determined as 3100 nM; in experiment [2], 4400 nM.

For the compound `CCN(c1cc(Cl)cc(C(=O)NCc2c(C)[nH]c(C)cc2=O)c1C)[C@H]1CC[C@H](N(C)Cc2cccc(OC)c2)CC1` [Compound 99], the results for the half-inhibitory concentration (IC50) in experiment [3], in experiment [1] and in experiment [4] were 1 nM, 560 nM and 5 nM, respectively.

`CCN(c1cc(Cl)cc(C(=O)NCc2c(Cl)[nH]c(C)cc2=O)c1C)[C@H]1CC[C@H](N(C)Cc2cccc(OC)c2)CC1` [Compound 101]: the figures for the IC50 in experiment [3], in experiment [1] and in experiment [4] were 15 nM, 3000 nM and 10 nM, respectively.

On to `CCN(c1cc(-c2ccc(OCCOC)cc2)cc(C(=O)NCc2c(Cl)[nH]c(C)cc2=O)c1C)[C@H]1CC[C@H](N(C)CCOC)CC1` [Compound 102], for which the results for the IC50 in experiment [3], in experiment [1] and in experiment [4] were 150 nM, 10800 nM and 93 nM, respectively.

On to `CCN(c1cc(Cl)cc(C(=O)NCc2c(C)[nH]c(C)cc2=O)c1C)C1CCN(CCOC)CC1` [Compound 103], for which the results for the IC50 in experiment [3], in experiment [1] and in experiment [4] were 360 nM, 41300 nM and 341 nM, respectively.

In the case of `CCN(c1cc(Cl)cc(C(=O)NCc2c(Cl)[nH]c(C)cc2=O)c1C)C1CCN(CCOC)CC1` [Compound 104], the figures for the IC50 in experiment [3], in experiment [1] and in experiment [4] were 870 nM, 49500 nM and 598 nM, respectively.
